Assay [1] relates to Saccharomyces cerevisiae. As to conditions: molasses media, 0 to 1000 ppm, 3 g active dry yeast, 32° C.
Protocol: Molasses Medium: The media was prepared by diluting 333 g molasses with water to final weight of 1000 g (w/w). To this 400 mg of urea was added as nitrogen source.
Saccharomyces cerevisiae was used in the form of active dry yeast at a concentration of 3% w/v or was pre-cultured by adding 6 g of active dry yeast into 100 ml YEGM in 250 ml Erlenmeyer's flask. The cultures were incubated at 32° C.±2° C. with mixing at 100 to 200 rpm to a final OD660 of 100±10. This culture was subsequently used as an inoculum for further fermentation studies at a concentration of 6% v/v.
The composition of the reaction products was measured by high pressure liquid chromatographic method (Agilent Isocratic system 1200, USA with RI detector) by injecting 20 μL of appropriately diluted samples onto a Aminex Column HPX-87H (catalogue number 1250140, Bio-Rad) maintained at 60° C. using 0.01N sulphuric acid as a mobile phase at a flow rate of 0.7 mL/min. The detection was carried out using Refractive index detector (RID).
Fermentation was carried out at 32° C.±2° C. in incubator shaker at 100-200 rpm. The fermentation was carried out until glucose value observed was less than 0.1% w/v. Thereafter, the samples were analysed for alcohol, organic acids, and glycerol profile by HPLC.
Batch fermentation was initiated by addition of sodium benzoate at a concentration ranging from 0 to 1000 ppm followed by 3 g of active dry yeast into 100 ml molasses media in 250 mL Erlenmeyer flasks. Fermentation was carried out in incubator shaker at 32° C.±2° C. at 100 to 200 rpm. Thereafter, the samples were analysed for alcohol, organic acids, and glycerol profile by HPLC.
Fermentation was carried out at 32° C.±2° C. in incubator shaker at 100 to 200 rpm. The fermentation was carried out until glucose value observed was less than 0.1% w/v. Thereafter, the samples were analysed for alcohol, organic acids, and glycerol profile by HPLC.
Assay [2] deals with Saccharomyces cerevisiae. The assay can be described thus: Batch yeast fermentation in YEGM medium with added organic acid salt. The class given is cell-based. As to conditions: increasing concentration 0 to 1000 ppm; for increase in ethanol production: 32° C., until glucose less than 0.1% w/v; for yeast growth: biomass by OD660. The procedure:
Yeast Extract Glucose media (YEGM): YEGM was prepared by dissolving 0.75 g Yeast Extract and 10 g dextrose dissolved in 100 ml tap water with pH in range […]. The media was then sterilized at 121° C. for 20 min.
The yeast biomass was measured using UV-Vis spectrophotometers (Shimadzu UV-1800) by diluting with YEGM to an OD660 in range of 0.2 to 0.8 with Milli-Q water.
Thereafter, the samples were analysed for alcohol and glycerol profile by HPLC and yeast biomass by UV Spectrophotometer.

We go through two compounds from patent US20180030483A1, “PROCESS FOR PRODUCTION OF BIO-ALCOHOL” (DANISCO US INC., priority 2015, published 2018).

Like-named read-outs stand apart in the source and are kept apart here.

`O=C([O-])c1ccccc1.[Na+]` [sodium benzoate]: in the assay with Saccharomyces cerevisiae [1], the ethanol production result is “increased” and the glycerol yield result is recorded as “reduced”. Further, in the assay with Saccharomyces cerevisiae [2], the glycerol yield entry was “reduced”, the “increase in ethanol production” value was not below 6% and the yeast growth entry is “reduced”.

Take `C/C=C/C=C/C(=O)[O-].[K+]` [potassium sorbate]: in the assay on Saccharomyces cerevisiae [1], the acetic acid yield entry is reported as “reduced”, the ethanol production entry is given as “increased” and the glycerol yield entry is on record as “reduced”. In the assay with Saccharomyces cerevisiae [2], the glycerol yield result is “reduced”, the “increase in ethanol production” value is recorded as not below 6% and the yeast growth entry is on record as “reduced”.
